From article PMC4389225, “Triaminopyrimidine is a fast-killing and long-acting antimalarial clinical candidate” (Nature Communications, 2015)
≈ marks a conversion by molar mass, not a printed value. Where two headings read alike, the source gives them in different places.

Legend:
[1] = Solubility
[2] = Acute anaesthetised guinea pig CVS model, compound 2; format: in vivo
Experimental: Protein binding (human free)
Guinea Pig Study: Anaesthetised guinea pigs (n=2) were treated with compound 2 at 5 mg/kg followed by 15 mg/kg (AstraZeneca, Alderley Park, UK) using methodology based on that used to assess compound 12 at Biotrial, France. Haemodynamic and electrocardiography […]
achieved with compound 2 in an early mouse model once exposures reached approximately 9 μM Cmax (total). Consequently, compound 2 was classified as having no therapeutic window preclinically in this model. […]

[3] = Rat blood PK, IV and oral; format: in vivo; conditions: for Vd / half-life / clearance / MRT / bioavailability / AUC(0-inf) / AUC(0-t) / Cmax: rat; for bioavailability / AUC(0-inf) / AUC(0-t) / Cmax: 10 mg/kg
Experimental: Blood samples were collected at 0.083, 0.25, 0.5, 1, 2, 4, 8, 23, 32, 48, 55 and 72 hours after an IV dose of 2 mg/kg or an oral dose of 10 mg/kg. Oral administration was done using oral gavage at a maximum dose volume of 10 mL/kg. Solution formulation containing 10% NMP, 20% DMA in dextrose / normal saline was used for IV administration and a suspension in 0.5% w/v HPMC with 0.1% v/v Tween 80 was used for oral administration. 25 µl of blood samples were mixed with 100 µL of Milli-Q water and vortexed for 5 minutes in the plate shaker at a speed of 900 rpm to ensure complete hemolysis. Proteins were precipitated by adding 125 µL of cold acetonotrile containing internal standard. After extraction on a plate shaker for 10 minutes at 900 rpm, the plate was centrifuged at 4000 rpm for 20 minutes. The supernatant (180 µL) was transferred to another plate and 2.5 µL of Zinc sulphate (200 mM) was added to separate the heme fraction. This mixture was centrifuged and 10 µL of the supernatant was analyzed by LC-MS/MS. […]

[4] = test system: Dd2-6R F4 G7; assay: SYBR green growth assay, Dd2-6R F4 G7; conditions: Plasmodium falciparum
Experimental: Assays were carried out in 384-well format with three technical replicates within an assay day and biological replicates carried out on three different assay days to assign a final EC50.
The drug was then washed off and the parasites were allowed to recover in normal growth media.

[5] = Hepatocyte Clint, dog; format: in vitro ADME; conditions: for Predicted blood CL: Dog
Source text: Supplementary Note 5: Prediction of human clearance for compound 12 by IVIVE.
Human clearance (CL) was predicted by in vitro-in vivo extrapolation (IVIVE) from the in vitro Clint in human hepatocytes6. In vitro Clint was scaled to in vivo Clint as follows:
Clint in vivo = Clint in vitro * scaling factors * fublood/fuinc
The liver weights used for scaling were 40, 32 and 24 g/kg body weight in rat, dog and human respectively. Hepatocellularity used for scaling was 163, 169 and 120 (X 106) cells/g liver in rat, dog and human respectively. Free fraction in blood was calculated as fuplasma /Blood:Plasma (BP) ratio. BP ratio and free fraction in the hepatocyte incubation mix, fuinc, were measured in vitro. Slope and intercept from the linear regression analysis of IVIVC for a large number of AstraZeneca compounds was applied for final correction in the scaled in vivo Clint. A well stirred model was used for CL prediction.
Where Qh is the liver blood flow. The values of Qh in rat, dog and human are 72, 55 and 20 mL.min-1kg-1 in rat, dog and human, respectively. In vitro parameters, observed in vivo CL and predicted CL are shown in supplementary Table 10. […]
(also on this page, place not known: in vivo in vivo CLintQ CLintQCL Predicted predicted predicted h h + ×=)
(1 picture or pasted object on this page, not shown here)

[6] = Wistar, whole blood, po, Oral 10 mg kg-1, Mean
[7] = Wistar, whole blood, po, Oral 10 mg kg-1, Rat 1
[8] = Wistar, whole blood, po, Oral 10 mg kg-1, Rat 2
[9] = Wistar, whole blood, po, Oral 10 mg kg-1, Rat 3

Cc1cc(Nc2ncc(N3CCN(C)CC3)c(N3CCCC3)n2)ccn1 [compound 2]
solubility [1]: 830 µM (≈ 293 µg/mL)
A - Plasma Cmax Total ([2]; 5 mg/kg i.v.): 4530 nM
Safety Margin (A / B) ([2]; 5 mg/kg i.v.): None
Summary of clinical signs and effects ([2]; 5 mg/kg i.v.): Haemodynamic Effects
A - Plasma Cmax Total ([2]; 15 mg/kg i.v.): 20420 nM
Safety Margin (A / B) ([2]; 15 mg/kg i.v.): None
Summary of clinical signs and effects ([2]; 15 mg/kg i.v.): Haemodynamic & ECG Effects

Cc1nc(Nc2ncc(N3CCN(C)[C@H](C)C3)c(Nc3cc(C)n(C)n3)n2)cc(C2CC2)c1F [compound 12, (R)-N2-(4-cyclopropyl-5-fluoro-6-methylpyridin-2-yl)-N4-(1,5-dimethyl-1H-pyrazol-3-yl)-5-(3,4-dimethylpiperazin-1-yl)pyrimidine-2,4-diamine]
Vd ([3]; Wistar (rat), Beagle (dog), whole blood (rat), plasma (dog), intravenous, 2 mg/kg, rat and dog, read-out: volume of distribution (Vss)): 10 to 20 L/kg
half-life ([3]; Wistar (rat), Beagle (dog), whole blood (rat), plasma (dog), iv, 2 mg/kg, intravenous PK, rat and dog, read-out: half-life): 11 to 13 h
half-life ([3]; Wistar (rat), Beagle (dog), whole blood (rat), plasma (dog), po, oral PK study, rat and dog, read-out: half-life): 14 to 16 h
clearance ([3]; Wistar, blood, iv, 2 mg/kg, Rat, read-out: Observed blood CL): 5 to 13 mL/min/kg
MRT ([3]; Wistar, whole blood, iv, 2 mg/kg, IV 2 mg kg-1, Mean): 15.7 h
clearance ([3]; Wistar, whole blood, iv, 2 mg/kg, IV 2 mg kg-1, Mean, read-out: CL): 9.2 mL/min/kg
Vd ([3]; Wistar, whole blood, iv, 2 mg/kg, IV 2 mg kg-1, Mean, read-out: Vss): 7.7 L/kg
half-life ([3]; Wistar, whole blood, iv, 2 mg/kg, IV 2 mg kg-1, Mean, read-out: t½ (converted)): 15.2 h
MRT ([3]; Wistar, whole blood, iv, 2 mg/kg, IV 2 mg kg-1, Rat 1): 11.8 h
clearance ([3]; Wistar, whole blood, iv, 2 mg/kg, IV 2 mg kg-1, Rat 1, read-out: CL): 13.1 mL/min/kg
Vd ([3]; Wistar, whole blood, iv, 2 mg/kg, IV 2 mg kg-1, Rat 1, read-out: Vss): 9.3 L/kg
half-life ([3]; Wistar, whole blood, iv, 2 mg/kg, IV 2 mg kg-1, Rat 1, read-out: t½ (converted)): 13.5 h
MRT ([3]; Wistar, whole blood, iv, 2 mg/kg, IV 2 mg kg-1, Rat 2): 22.6 h
clearance ([3]; Wistar, whole blood, iv, 2 mg/kg, IV 2 mg kg-1, Rat 2, read-out: CL): 4.8 mL/min/kg
Vd ([3]; Wistar, whole blood, iv, 2 mg/kg, IV 2 mg kg-1, Rat 2, read-out: Vss): 6.6 L/kg
half-life ([3]; Wistar, whole blood, iv, 2 mg/kg, IV 2 mg kg-1, Rat 2, read-out: t½ (converted)): 19.2 h
MRT ([3]; Wistar, whole blood, iv, 2 mg/kg, IV 2 mg kg-1, Rat 3): 12.6 h
clearance ([3]; Wistar, whole blood, iv, 2 mg/kg, IV 2 mg kg-1, Rat 3, read-out: CL): 9.6 mL/min/kg
Vd ([3]; Wistar, whole blood, iv, 2 mg/kg, IV 2 mg kg-1, Rat 3, read-out: Vss): 7.2 L/kg
half-life ([3]; Wistar, whole blood, iv, 2 mg/kg, IV 2 mg kg-1, Rat 3, read-out: t½ (converted)): 13 h
bioavailability ([3]; Wistar, whole blood, oral, read-out: Rat F (bioavailability)): 80%
AUC(0-inf) [3, 6]: 35.8 µM·h
AUC(0-t) [3, 6]: 34.7 µM·h
Cmax [3, 6]: 2000 nM
bioavailability ([3]; Wistar, whole blood, po, Oral 10 mg kg-1, Mean, read-out: F): 90%
AUC(0-inf) [3, 7]: 33.1 µM·h
AUC(0-t) [3, 7]: 31.8 µM·h
Cmax [3, 7]: 1710 nM
bioavailability ([3]; Wistar, whole blood, po, Oral 10 mg kg-1, Rat 1, read-out: F): 121%
AUC(0-inf) [3, 8]: 38.4 µM·h
AUC(0-t) [3, 8]: 37.2 µM·h
Cmax [3, 8]: 2210 nM
bioavailability ([3]; Wistar, whole blood, po, Oral 10 mg kg-1, Rat 2, read-out: F): 52%
AUC(0-inf) [3, 9]: 36 µM·h
AUC(0-t) [3, 9]: 35.1 µM·h
Cmax [3, 9]: 1990 nM
bioavailability ([3]; Wistar, whole blood, po, Oral 10 mg kg-1, Rat 3, read-out: F): 96%
Tmax ([3]; Wistar, whole blood, Oral 10 mg kg-1, Rat 1): 4 h
CL ([3]; rat and dog): < 35 % liver blood flow
IC50 [4]: 0.0907 µM
Predicted blood CL [5]: 38 % LBF
Predicted blood CL ([5]; IVIVC from hepatocyte Clint): 20.8 mL/min/kg
hepatocyte CLint ([5]; dog, hepatocytes): 9.3 µL/min/1e6 cells
